Laboratory results published in patent US20180020662A1, “Substituted 1-cycloalkyl-2-oxotetrahydroquinolin-6-ylsulfonamides or salts thereof and use thereof to increase stress tolerance in plants” (BAYER CROPSCIENCE AKTIENGESELLSCHAFT, priority 2015, published 2018).

What was measured:
[1] = test system: Brassica napus; test: Drought stress test on potted crop plants, spray application, visual scoring against stressed control plants; format: in vivo; set-up: key: 0: no positive effect; +: slight positive effect; ++: clear positive effect; +++: strong positive effect; details: mean of at least three repeats
Description: (§1) Seeds of monocotyledonous and dicotyledonous crop plants were sown in sandy loam in plastic pots, covered with soil or sand and cultivated in a greenhouse under good growth conditions. The test plants are treated at the early leaf stage (BBCH10-BBCH13). To assure uniform water supply before commencement of stress, the potted plants were supplied with water by dam irrigation prior to substance application. The inventive compounds were first formulated as wettable powders (WP) or dissolved in a solvent mixture. The further dilution was effected with water supplemented with 0.2% wetting agent (e.g. agrotin). The finished spray liquor was sprayed onto the green parts of the plant at an equivalent water application rate of 600 I/ha. Substance application was followed immediately by stress treatment of the plants. Drought stress was induced by gradual drying out under the following conditions: “Day”: 14 hours with illumination at […]. “Night”: 10 hours without illumination at […]. The duration of the respective stress phases was guided mainly by the condition of the stressed control plants. It was ended (by re-irrigating and transfer to a greenhouse with good growth conditions) as soon as irreversible damage was observed on the stressed control plants. The end of the stress phase was followed by an about 4-7-day recovery phase, during which the plants were once again kept under good growth conditions in a greenhouse. The duration of the recovery phase was guided mainly by when the trial plants had attained a state which enabled visual scoring of potential effects, and was therefore variable. Once this juncture had been reached, the appearance of the plants treated with test substances was recorded in comparison to the stressed control plants by the following categories: • 0 no positive effect • + slight positive effect • ++ clear positive effect • +++ strong positive effect In order to rule out any influence on the effects observed by any fungicidal or insecticidal action of the test compounds, it was additionally ensured that the tests proceeded without fungal infection or insect infestation. The values reported in tables A-1 and A-2 below are mean values of the results from at least three repeats. Effects of selected compounds of the general formula (I) under drought stress according to the following tables A-1 and A-2: In the above tables: BRSNS =Brassica napus TRZAS =Triticum aestivum

[2] = target: T1, phosphatase ABI1 via the co-regulator RCAR11/PYR1 (Arabidopsis thaliana, UniProt O49686+P49597); test: In vitro assay: inhibition of ABI1 dephosphorylation of 4-methylumbelliferyl phosphate (MUP), fluorescence; format: biochemical; details: concentration of 5 mM of the substance in DMSO and water, 35° C., 20 minutes
T1 sequence (O49686 1-191): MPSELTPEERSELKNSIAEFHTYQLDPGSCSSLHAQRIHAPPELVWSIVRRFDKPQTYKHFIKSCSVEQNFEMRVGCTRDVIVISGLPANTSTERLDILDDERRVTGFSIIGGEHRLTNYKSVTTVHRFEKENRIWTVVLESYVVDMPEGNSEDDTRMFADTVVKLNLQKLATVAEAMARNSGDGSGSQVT
T1 sequence (P49597 1-434): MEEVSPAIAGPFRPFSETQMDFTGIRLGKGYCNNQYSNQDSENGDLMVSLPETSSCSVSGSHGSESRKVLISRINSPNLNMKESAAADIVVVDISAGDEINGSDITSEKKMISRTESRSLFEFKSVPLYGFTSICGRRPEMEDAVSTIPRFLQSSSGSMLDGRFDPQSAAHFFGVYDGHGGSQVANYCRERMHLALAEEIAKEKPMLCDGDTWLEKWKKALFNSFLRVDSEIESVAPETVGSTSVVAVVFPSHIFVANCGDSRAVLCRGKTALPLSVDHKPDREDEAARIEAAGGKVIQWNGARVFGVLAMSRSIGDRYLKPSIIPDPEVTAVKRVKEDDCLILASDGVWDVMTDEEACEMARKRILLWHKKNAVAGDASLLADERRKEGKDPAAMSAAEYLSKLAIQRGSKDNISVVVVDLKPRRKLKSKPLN
Source text: Effects of the phytohormone abscisic acid (ABA) on the behavior of plants under abiotic stress and the mechanism of action of ABA are described in the literature (cf. Abrams et al., WO97/23441, Park et al. Science, 2009, 324, 1068; Grill et al. Science, 2009, 324, 1064; Tanokura et al. Biophysics, 2011, 7, 123; Schroeder et al. Plant J. 2010, 61, 290). Therefore, it is possible with the aid of a suitable in vitro test system to derive a correlation between the action of ABA and the stress response of a plant under abiotic stress. In the event of water deficiency (drought stress), plants form the phytohormone abscisic acid (ABA). This binds, along with a co-regulator (Regulatory Component of ABA-Receptor=RCAR according to Grill et al. Science, 2009, 324, 1064 or PYR/PYL according to Cutler et al. Science, 2009, 324, 1068), to a phosphatase (e.g. ABI1, a type 2C protein phosphatase, also abbreviated to PP2C) and inhibits its activity. As a result, a “downstream” kinase (e.g. SnRK2) is no longer dephosphorylated. This kinase, which is thus active, via phosphorylation of transcription factors (e.g. AREB/ABF, cf. Yoshida et al Plant J. 2010, 61, 672), switches on a genetic protection program to increase drought stress tolerance. The assay described hereinafter utilizes the inhibition of the phosphatase ABI1 via the co-regulator RCAR11/PYR1 aus Arabidopsis thaliana. For the determination of activity, the dephosphorylation of 4-methylumbelliferyl phosphate (MUP) was measured at 460 nm. The in vitro assay was conducted in Greiner 384-well PS microplates F-well, using two controls: a) 0.5% dimethyl sulfoxide (DMSO) and b) 5 μM abscisic acid (ABA). The assay described here was generally conducted with substance concentrations of the appropriate chemical test substances in a concentration range of 0.1 μM to 100 μM in a solution of DMSO and water. The substance solution thus obtained, if necessary, was stirred with esterase from porcine liver (EC 3.1.1.1) at room temperature for 3 h and centrifuged at 4000 rpm for 30 min. A total volume of 45 μl was introduced into each cavity of the microplate, having the following composition: • 1) 5 μl of substance solution, i.e. a) DMSO 5% or b) abscisic acid solution or c) the corresponding example compound of the general formula (I) dissolved in 5% DMSO. • 2) 20 μl of enzyme buffer mix, composed of a) 40% by vol. of enzyme buffer (10 ml contain equal proportions by volume of 500 mM Tris-HCl pH 8, 500 mM NaCl, 3.33 mM MnCl2, 40 mM dithiothreitol (DTT)), b) 4% by vol. of ABI1 dilution (protein stock solution was diluted so as to give, after addition, a final concentration in the assay of 0.15 μg ABI1/well), c) 4% by vol. of RCAR11 dilution (enzyme stock was diluted so as to give, on addition of the dilution to the enzyme buffer mix, a final concentration in the assay of 0.30 μg enzyme/well), d) 5% by vol. of Tween20 (1%), e) 47% by vol. H2O bi-dist. • 3) 20 μl of substrate mix, composed of a) 10% by vol. of 500 mM Tris-HCl pH 8, b) 10% by vol. of 500 mM NaCl, c) 10% by vol. of 3.33 mM MnCl2, d) 5% by vol. of 25 mM MUP, 5% by vol. of Tween20 (1%), 60% by vol. of H2O bi-dist.
Enzyme buffer mix and substrate mix were made up 5 minutes prior to the addition and warmed to a temperature of 35° C. On completion of pipetting of all the solutions and on completion of mixing, the plate was incubated at 35° C. for 20 minutes. Finally, a relative fluorescence measurement was made at 35° C. with a BMG Labtech “POLARstar Optima” microplate reader using a 340/10 nm excitation filter and a 460 nm emission filter. The efficacy of the compounds of the general formula (I) is reported in the table which follows using abscisic acid […] as comparative substance (no. 38) according to the following classification: ++++(inhibition ≧90%), +++(90% >inhibition ≧70%), ++(70% >inhibition ≧50%), +(50% >inhibition ≧30%). […]

[3] = test system: Triticum aestivum; test: Drought stress test on potted crop plants, spray application, visual scoring against stressed control plants; format: in vivo; set-up: key: 0: no positive effect; +: slight positive effect; ++: clear positive effect; +++: strong positive effect; details: mean of at least three repeats
Description: as §1

| Structure (SMILES) | Effect (BRSNS) ([1]; dosage 25 g/ha) | ABI1 inhibition [2] | Effect (BRSNS) ([1]; dosage 250 g/ha) | Effect (TRZAS) ([3]; dosage 25 g/ha) | Effect (TRZAS) ([3]; dosage 250 g/ha) |
| --- | --- | --- | --- | --- | --- |
| CC1CC(N2C(=O)CCc3cc(NS(=O)(=O)Cc4ccc(F)cc4)ccc32)C1 (stereo not drawn) [A26-158] | + | ++++ (inhibition ≧90%) |  |  |  |
| Cc1cccc(CS(=O)(=O)Nc2ccc3c(c2)CCC(=O)N3C23CC(C2)C3)c1 [A30-153] |  | +++ (90% >inhibition ≧70%) | + |  |  |
| N#Cc1ccc(S(=O)(=O)Nc2ccc3c(c2)CCC(=O)N3C2CC2C2CC2)cc1 (stereo not drawn) [A16-45] | ++ |  |  | + |  |
| CC1(N2C(=O)CCc3cc(NS(=O)(=O)Cc4ccc(Cl)cc4)ccc32)CC1 [A1-165, 1-(4-Chlorophenyl)-N-[1-(1-methylcyclopropyl)-2-oxo-1,2,3,4-tetrahydroquinolin-6-yl]methanesulfonamide] |  | ++++ (inhibition ≧90%) | ++ |  | + |
| CC1(N2C(=O)CCc3cc(NS(=O)(=O)c4ccc(C#N)cc4)ccc32)CC1 [A1-45] |  |  |  | + |  |
| N#Cc1ccc(S(=O)(=O)Nc2ccc3c(c2)CCC(=O)N3C2CC(F)(F)C2)cc1 [A39-45] |  |  |  |  | ++ |
| O=C1CCc2cc(NS(=O)(=O)Cc3ccc(F)cc3)ccc2N1C1(C2CC2)CC1 [A3-158] |  | ++++ (inhibition ≧90%) |  |  | + |
| O=C1CCc2cc(NS(=O)(=O)Cc3ccc(F)cc3)ccc2N1C12CC(C1)C2 [A30-158] |  | ++++ (inhibition ≧90%) |  | + |  |
| CC1(N2C(=O)CCc3cc(NS(=O)(=O)Cc4cccc(Cl)c4)ccc32)CC1 [A1-166] |  | +++ (90% >inhibition ≧70%) | ++ |  |  |
| O=C1CCc2cc(NS(=O)(=O)Cc3ccc(Cl)cc3)ccc2N1C12CC(C1)C2 [A30-165] |  | ++++ (inhibition ≧90%) |  |  | ++ |
| O=C1CCc2cc(NS(=O)(=O)Cc3ccc(Cl)cc3)ccc2N1C1(C2CC2)CC1 [A3-165] |  | ++++ (inhibition ≧90%) |  |  | + |
| O=C1CCc2cc(NS(=O)(=O)Cc3ccc(Cl)cc3)ccc2N1C1CC1C(F)(F)F (stereo not drawn) [A37-165] |  | +++ (90% >inhibition ≧70%) |  |  | ++ |
| CC1(N2C(=O)CCc3cc(NS(=O)(=O)Cc4ccc(C#N)cc4)ccc32)CC1 [A1-181] |  | ++++ (inhibition ≧90%) | ++ |  | + |
| CC1CCC1N1C(=O)CCc2cc(NS(=O)(=O)c3ccc(C#N)cc3)ccc21 (stereo not drawn) [A38-45] |  |  |  |  | + |
| N#Cc1ccc(S(=O)(=O)Nc2ccc3c(c2)CCC(=O)N3C23CC(C2)C3)cc1 [A30-45] |  |  |  |  | + |
| N#Cc1ccc(CS(=O)(=O)Nc2ccc3c(c2)CCC(=O)N3C2(C3CC3)CC2)cc1 [A3-181] |  | ++++ (inhibition ≧90%) |  | + |  |
